Key:
HepG2 cells = experiment: In vitro anti-proliferative SRB assay, HepG2; assay type: cell-based, human; conditions: for inhibition at 10 µM / IC50: Homo sapiens; for inhibition at 10 µM: HepG2 cells, SRB assay, mean ± SD of three independent experiments; for IC50: HepG2, increasing concentrations up to 30 μM, mean ± SD of at least three independent experiments; for SI (CC50 HMLE/IC50 HepG2) / SI (CC50 L02/IC50 HepG2): selectivity index; for SI (CC50 HMLE/IC50 HepG2): HMLE vs HepG2; for SI (CC50 L02/IC50 HepG2): L02 vs HepG2
Description: (§1) HepG2 and MCF7 cells were grown in the Eagle’s minimum essential medium with Earle’s balanced salts (MEM-EBSS) medium, HeLa, A549 and L02 cells were grown in Dulbecco’s Modified Eagle Media (DMEM), SW1990 cells were grown in RPMI-1640 medium, and HMLE cell were grown in DMEM/F-12 medium. […]
(§2) Cells were seeded into 96-well plates (4000 cells/well) and incubated at 37 °C in a humidified 5% CO2 atmosphere. After 24 h, the cells were treated with different concentrations of the compounds for 48 h in triplicate to generate dose-response curves. Cell viability was evaluated using the sulforhodamine B (SRB) assay as previous described.

HeLa cells = experiment: In vitro anti-proliferative SRB assay, HeLa; assay type: cell-based, human; conditions: for IC50: Homo sapiens, HeLa, increasing concentrations up to 30 μM, mean ± SD of at least three independent experiments; for SI (CC50 HMLE/IC50 Hela) / SI (CC50 L02/IC50 Hela): selectivity index; for SI (CC50 HMLE/IC50 Hela): HMLE vs HeLa; for SI (CC50 L02/IC50 Hela): L02 vs HeLa
Description: as §1, §2

SW1990 cells = experiment: In vitro anti-proliferative SRB assay, SW1990; assay type: cell-based, human; conditions: for IC50: Homo sapiens, SW1990, increasing concentrations up to 30 μM, mean ± SD of at least three independent experiments; for SI (CC50 HMLE/IC50 SW1990) / SI (CC50 L02/IC50 SW1990): selectivity index; for SI (CC50 HMLE/IC50 SW1990): HMLE vs SW1990; for SI (CC50 L02/IC50 SW1990): L02 vs SW1990
Description: as §1, §2

MCF-7 cells = experiment: In vitro anti-proliferative SRB assay, MCF-7; assay type: cell-based, human; conditions: for IC50: Homo sapiens, MCF7, increasing concentrations up to 30 μM, mean ± SD of at least three independent experiments; for SI (CC50 HMLE/IC50 MCF7) / SI (CC50 L02/IC50 MCF7): selectivity index; for SI (CC50 HMLE/IC50 MCF7): HMLE vs MCF7; for SI (CC50 L02/IC50 MCF7): L02 vs MCF7
Description: as §1, §2

A549 cells = experiment: In vitro anti-proliferative SRB assay, A549; assay type: cell-based, human; conditions: for IC50: Homo sapiens, A549, increasing concentrations up to 30 μM, mean ± SD of at least three independent experiments; for SI (CC50 HMLE/IC50 A549) / SI (CC50 L02/IC50 A549): selectivity index; for SI (CC50 HMLE/IC50 A549): HMLE vs A549; for SI (CC50 L02/IC50 A549): L02 vs A549
Description: as §1, §2

[1] = Cytotoxicity (SRB) against non-tumoral HMLE cells; assay type: cell-based, human; conditions: human, HMLE cells (non-tumoral human mammary epithelial cells); increasing concentrations up to 100 μM; mean ± SD of at least three independent experiments; read-out: Normal Human Cell Lines, CC50, HMLE
Description: (§3) All compounds were also evaluated for their cytotoxic activity against two non-tumoral human cell lines named human mammary epithelial cell (HMLE) and L02 (a human liver cell line) in Table 2 and SI values between the CC50 in non-tumoral cell lines and IC50 in tumoral cells calculated.
as §1
as §2, with “described. […] Etoposide was used as the positive control.” for “described.”

[2] = Cytotoxicity (SRB) against non-tumoral L02 cells; assay type: cell-based, human; conditions: human, L02 cells (non-tumoral human liver cell line); increasing concentrations up to 100 μM; mean ± SD of at least three independent experiments; read-out: Normal Human Cell Lines, CC50, L02
Description: as §3, §1
as §2, with “described. […] Etoposide was used as the positive control.” for “described.”

| melting point [°C] | IC50 (HeLa cells) [µM] | IC50 (SW1990 cells) [µM] | IC50 (MCF-7 cells) [µM] | IC50 (A549 cells) [µM] | IC50 (HepG2 cells) [µM] | SMILES | inhibition at 10 µM (HepG2 cells) [%] | SI (CC50 HMLE/IC50 Hela) (HeLa cells) | SI (CC50 L02/IC50 Hela) (HeLa cells) | SI (CC50 HMLE/IC50 SW1990) (SW1990 cells) | SI (CC50 L02/IC50 SW1990) (SW1990 cells) | SI (CC50 HMLE/IC50 MCF7) (MCF-7 cells) | SI (CC50 L02/IC50 MCF7) (MCF-7 cells) | SI (CC50 HMLE/IC50 A549) (A549 cells) | SI (CC50 L02/IC50 A549) (A549 cells) | CC50 at 48 h [1] [µM] | CC50 at 48 h [2] [µM] | SI (CC50 HMLE/IC50 HepG2) (HepG2 cells) | SI (CC50 L02/IC50 HepG2) (HepG2 cells) |
| --- | --- | --- | --- | --- | --- | --- | --- | --- | --- | --- | --- | --- | --- | --- | --- | --- | --- | --- | --- |
| 106.3 to 107.9 | – | – | – | – | – | CCOc1ccc(/C=C/C(=O)c2ccc(OC)cc2)cc1 [a11, (E)-1-(4-Methoxyphenyl)-3-(4-ethoxyphenyl)prop-2-en-1-one] | 13.1 ± 8.4 | – | – | – | – | – | – | – | – | – | – | – | – |
| 189.6 to 191.4 | 12.7 ± 0.81 | 20.8 ± 0.54 | 20.2 ± 0.3 | 23.8 ± 1.56 | 14.4 ± 0.81 | COc1cccc(OC)c1/C=C/C(=O)c1ccc(O)cc1 [b26, (E)-1-(4-Hydroxyphenyl)-3-(2,6-dimethoxyphenyl)prop-2-en-1-one] | – | 1.0 | 2.2 | 0.6 | 1.4 | 0.6 | 1.4 | 0.5 | 1.2 | 12.6 ± 2.82 | 28.2 ± 1.69 | 0.9 | 2.0 |
| 63.1 to 64.8 | 12.2 ± 0.25 | 10.68 ± 0.08 | 11.59 ± 0.07 | 13.2 ± 0.43 | 7.71 ± 0.21 | CCOc1cccc(C(=O)/C=C/c2c(OC)cccc2OC)c1 [b9, (E)-1-(3-Ethoxyphenyl)-3-(2,6-dimethoxyphenyl)prop-2-en-1-one] | – | 0.8 | 1.4 | 0.9 | 1.6 | 0.8 | 1.5 | 0.7 | 1.3 | 9.58 ± 0.44 | 17.4 ± 5.96 | 1.2 | 2.3 |
| 145.3 to 146.4 | – | – | – | – | – | COc1ccc(C(=O)/C=C/c2ccc(Br)cc2Cl)cc1 [a5, (E)-1-(4-Methoxyphenyl)-3-(4-bromo-2-chlorophenyl)prop-2-en-1-one] | 9 ± 5.6 | – | – | – | – | – | – | – | – | – | – | – | – |
| 122.1 to 123.7 | – | – | – | – | – | COc1ccc(C(=O)/C=C/c2cc(OC)c(OC)cc2OC)cc1 [a19, (E)-1-(4-Methoxyphenyl)-3-(2,4,5-trimethoxyphenyl)prop-2-en-1-one] | 38.1 ± 10.3 | – | – | – | – | – | – | – | – | – | – | – | – |
| 94.4 to 96.5 | – | – | – | – | – | COc1ccc(C(=O)/C=C/c2ccc(OC)c(OC)c2OC)cc1 [a18, (E)-1-(4-Methoxyphenyl)-3-(2,3,4-trimethoxyphenyl)prop-2-en-1-one] | 31.8 ± 7.3 | – | – | – | – | – | – | – | – | – | – | – | – |
| 123.7 to 125.7 | – | – | – | – | – | COc1ccc(C(=O)/C=C/c2c(OC)cccc2OC)cc1 [a14, (E)-1-(4-Methoxyphenyl)-3-(2,6-dimethoxyphenyl)prop-2-en-1-one] | 78.1 ± 4.7 | – | – | – | – | – | – | – | – | – | – | – | – |
| – | – | – | – | – | – | COc1ccc(C(=O)/C=C/c2ccccc2)cc1 [a1, (E)-1-(4-Methoxyphenyl)-3-phenylprop-2-en-1-one] | 42.4 ± 2 | – | – | – | – | – | – | – | – | – | – | – | – |
| 107.9 to 109.7 | 18.4 ± 0.06 | > 30 | 29.8 ± 0.8 | > 30 | 27.1 ± 0.88 | COc1cccc(OC)c1/C=C/C(=O)c1ccc(Cl)cc1 [b35, (E)-1-(4-Chlorophenyl)-3-(2,6-dimethoxyphenyl)prop-2-en-1-one] | – | 1.0 | 4.6 | <0.6 | <2.8 | 0.6 | 2.9 | <0.6 | <2.8 | 17.7 ± 1.35 | 85.4 ± 6.86 | 0.7 | 3.2 |
| 153.7 to 155.1 | – | – | – | – | – | COc1ccc(C(=O)/C=C/c2ccc(Br)cc2)cc1 [a2, (E)-1-(4-Methoxyphenyl)-3-(4-bromophenyl)prop-2-en-1-one] | 37.6 ± 4.4 | – | – | – | – | – | – | – | – | – | – | – | – |
| – | 3.96 ± 0.17 | 29.3 ± 1.73 | 20.6 ± 0.34 | 3.23 ± 0.28 | 5.11 ± 0.45 | COc1cc([C@@H]2c3cc4c(cc3[C@@H](O[C@@H]3O[C@@H]5CO[C@@H](C)O[C@H]5[C@H](O)[C@H]3O)[C@H]3COC(=O)[C@H]23)OCO4)cc(OC)c1O [Etoposide, reference compound] | 63.9 ± 0.1 | – | – | – | – | – | – | – | – | 6.42 ± 0.39 | > 100 | – | – |

| SMILES | melting point [°C] | IC50 (HeLa cells) [µM] | IC50 (SW1990 cells) [µM] | IC50 (MCF-7 cells) [µM] | IC50 (A549 cells) [µM] | IC50 (HepG2 cells) [µM] | inhibition at 10 µM (HepG2 cells) [%] | SI (CC50 HMLE/IC50 Hela) (HeLa cells) | SI (CC50 L02/IC50 Hela) (HeLa cells) | SI (CC50 HMLE/IC50 SW1990) (SW1990 cells) | SI (CC50 L02/IC50 SW1990) (SW1990 cells) | SI (CC50 HMLE/IC50 MCF7) (MCF-7 cells) | SI (CC50 L02/IC50 MCF7) (MCF-7 cells) | SI (CC50 HMLE/IC50 A549) (A549 cells) | SI (CC50 L02/IC50 A549) (A549 cells) | CC50 at 48 h [1] [µM] | CC50 at 48 h [2] [µM] | SI (CC50 HMLE/IC50 HepG2) (HepG2 cells) | SI (CC50 L02/IC50 HepG2) (HepG2 cells) |
| --- | --- | --- | --- | --- | --- | --- | --- | --- | --- | --- | --- | --- | --- | --- | --- | --- | --- | --- | --- |
| COc1cccc(OC)c1/C=C/C(=O)c1ccc2c(c1)OCO2 [b20, (E)-1-(Benzo[d][1,3]dioxol-5-yl)-3-(2,6-dimethoxyphenyl)prop-2-en-1-one] | 138.6 to 140.4 | 16.2 ± 0.95 | 25.9 ± 0.65 | 22.5 ± 0.37 | 19.5 ± 0.9 | 17.5 ± 0.54 | – | 0.9 | 3.8 | 0.5 | 2.4 | 0.6 | 2.7 | 0.7 | 3.1 | 14.2 ± 1.06 | 60.9 ± 5.61 | 0.8 | 3.5 |
